Experimental data from the NIST ThermoML archive (doi:10.1021/acs.jced.5b00971).

Conditions: Liquid; for thermal conductivity: Hot wire method; for viscosity: Capillary tube (Ostwald / Ubbelohde) method; for mass density: Pycnometric method

CCCCCCCCCC(=O)O [decanoic acid]
101.33 kPa
Conditions	mass density [kg/m3]	thermal conductivity [W/m/K]	viscosity [mPa·s]
308 K	–	0.154	–
322.1 K	878	–	4.75
327.4 K	–	0.15	–
332.1 K	871	–	3.8
348.8 K	–	0.146	–
352.1 K	855.3	–	2.55
368.3 K	843.1	–	1.94
373.9 K	–	0.14	–
388.3 K	827.3	–	1.45
398.3 K	–	0.135	–
408.2 K	812.2	–	1.1
421.9 K	–	0.13	–
427.2 K	797.2	–	0.88
428.2 K	796.4	–	0.87
442.2 K	784.9	–	0.75
447.3 K	–	0.125	–
457.2 K	772.9	–	0.64
472.2 K	761.9	–	0.56
473.4 K	–	0.119	–

CCCCCCCCCCCC(=O)O [dodecanoic acid]
101.33 kPa
Conditions	mass density [kg/m3]	thermal conductivity [W/m/K]	viscosity [mPa·s]
322.1 K	872.4	–	7.21
324.6 K	–	0.156	–
332.1 K	864.6	–	5.62
348.7 K	–	0.151	–
352.1 K	849.9	–	3.7
368.2 K	838.9	–	2.69
373.8 K	–	0.145	–
388.4 K	824.1	–	1.97
398.4 K	–	0.14	–
408.1 K	809.3	–	1.47
422 K	–	0.134	–
428.1 K	794.4	–	1.11
442.2 K	783.5	–	0.95
447.5 K	–	0.129	–
457.2 K	770.2	–	0.8
467.2 K	762	–	0.72
472.7 K	–	0.123	–

CCCCCCC(=O)O [heptanoic acid]
101.33 kPa
Conditions	mass density [kg/m3]	thermal conductivity [W/m/K]	viscosity [mPa·s]
290.3 K	920.6	–	4.63
296 K	–	0.144	–
308 K	905.7	–	3.06
314.4 K	–	0.14	–
323.1 K	893	–	2.3
332.4 K	–	0.137	–
338.1 K	880.4	–	1.74
352.6 K	–	0.133	–
353.1 K	867.8	–	1.39
367.1 K	855.4	–	1.13
372.2 K	–	0.13	–
382 K	–	0.127	–
383.2 K	842.3	–	0.94
391.9 K	–	0.124	–
397.9 K	829.4	–	0.79
412.4 K	–	0.121	–
412.9 K	816.6	–	0.68
427.7 K	803.4	–	0.59
441.7 K	–	0.116	–
471.4 K	–	0.11	–

CCCCCC(=O)O [hexanoic acid]
101.33 kPa
Conditions	mass density [kg/m3]	thermal conductivity [W/m/K]	viscosity [mPa·s]
294.5 K	926	–	–
294.6 K	–	–	3.07
296.9 K	–	0.143	–
312.1 K	910.5	–	2.15
325.7 K	–	0.138	–
332.1 K	893.1	–	1.52
347.4 K	–	0.134	–
352.1 K	875.8	–	1.14
368.1 K	861.7	–	0.94
374.7 K	–	0.128	–
388.4 K	843.5	–	0.73
398.1 K	–	0.124	–
408.3 K	825.3	–	0.6
422.3 K	–	0.12	–
428.3 K	806.5	–	0.49
445.6 K	–	0.116	–
471.2 K	–	0.113	–

CCCCCCCCC(=O)O [nonanoic acid]
101.33 kPa
Conditions	mass density [kg/m3]	thermal conductivity [W/m/K]	viscosity [mPa·s]
290.3 K	906	–	–
292.3 K	–	–	8.2
296.3 K	–	0.15	–
308 K	893.8	–	5.25
322.6 K	–	0.144	–
323.1 K	881.9	–	3.66
338.1 K	870.1	–	2.7
352.9 K	–	0.139	–
353.1 K	858.4	–	2.07
368 K	846.7	–	1.63
381.3 K	–	0.133	–
383.1 K	834.1	–	–
383.3 K	–	–	1.31
398.1 K	822.3	–	1.08
412.2 K	–	0.126	–
413 K	810.3	–	0.9
427.9 K	798	–	0.76
441.4 K	–	0.121	–
471.6 K	–	0.115	–

CCCCCCCC(=O)O [octanoic acid]
101.33 kPa
Conditions	mass density [kg/m3]	thermal conductivity [W/m/K]	viscosity [mPa·s]
290.3 K	910.3	–	–
293.3 K	–	–	5.86
297.2 K	–	0.147	–
308 K	898.2	–	3.98
322.3 K	–	0.142	–
323.1 K	885.9	–	2.88
338.1 K	873.8	–	2.17
352.8 K	–	0.136	–
353.1 K	861.8	–	1.69
367.8 K	849.7	–	1.36
383.1 K	837.2	–	1.11
387.6 K	–	0.13	–
398.1 K	824.6	–	0.92
411.3 K	–	0.124	–
412.9 K	812.3	–	0.78
427.7 K	799.2	–	0.67
442 K	–	0.118	–
471.7 K	–	0.112	–

CCCCC(=O)O [pentanoic acid]
Conditions	mass density [kg/m3]	thermal conductivity [W/m/K]	viscosity [mPa·s]
293.4 K	939.7	–	2.19
296.1 K	–	0.141	–
312.1 K	922.3	–	1.56
324.1 K	–	0.136	–
332.1 K	904.1	–	1.17
348.6 K	–	0.131	–
352.2 K	885.4	–	0.89
368.1 K	870.6	–	0.75
374 K	–	0.126	–
388.4 K	851	–	0.6
398 K	–	0.122	–
408.3 K	831.9	–	0.5
422.4 K	–	0.118	–
428.2 K	812.1	–	0.41
446.4 K	–	0.115	–
471.3 K	–	0.111	–

CCCCCCCCCCCCCC(=O)O [tetradecanoic acid]
101.33 kPa
Conditions	mass density [kg/m3]	thermal conductivity [W/m/K]	viscosity [mPa·s]
332.1 K	861.3	–	7.77
334.4 K	–	0.158	–
349 K	–	0.155	–
352.1 K	846.9	–	4.88
368.2 K	835.6	–	3.53
374.1 K	–	0.149	–
388.2 K	821.4	–	2.48
397.7 K	–	0.144	–
408.2 K	806.7	–	1.79
422.3 K	–	0.139	–
427.9 K	791.7	–	1.35
442.2 K	–	–	1.13
443.2 K	780.9	–	–
447.3 K	–	0.133	–
457.2 K	–	–	0.95
458.2 K	769.3	–	–
471.9 K	–	0.127	–
472.2 K	–	–	0.81
473.2 K	758	–	–
